Reference: ChEMBL document CHEMBL5030558, “Optimization and Evaluation of Novel Antifungal Agents for the Treatment of Fungal Infection” (J Med Chem, 2021)
Active and inactive are the calls of the source. The calls are words filed in the database; no cut-off is given here.

Key:
Cryptococcus neoformans [1] = assay: Fungicidal activity against Cryptococcus neoformans H99 at 8 times of MIC after 4 hrs by time-kill kinetics assay; type: functional, organism-based
Nakaseomyces glabratus [2] = assay: Additive antifungal activity against Candida glabrata BG2 assessed as assessed as FICI in presence of CSP after 48 hrs by checker board assay; type: functional, organism-based
[3] = AUC(0 to t) in Sprague-Dawley rat at 10 mg/kg, po; type: ADME, organism-based; set-up: dose 10 mg/kg; details: in vivo
Cryptococcus neoformans [4] = assay: Induction of morphological changes in Cryptococcus neoformans H99 assessed as cell wall damage at 4 to 8 ug/ml incubated for 24 hrs by TEM analysis; type: functional, organism-based; details: dose 4-8 µg/ml
Nakaseomyces glabratus [5] = assay: Synergistic antifungal activity against Candida glabrata BG2 assessed as FICI in presence of AmB after 48 hrs by checker board assay; type: functional, organism-based
[6] = Cmax in cynomolgus monkey at 10 mg/kg, iv; type: ADME, organism-based, Macaca fascicularis; set-up: route intravenous, dose 10 mg/kg; details: in vivo
[7] = Effect on cell wall integrity in Cryptococcus neoformans H99 assessed as activation of Mpk1 by measuring increase in Mpk1 phosphorylation ratio at 8 ug/ml after 90 mins by immunoblot analysis (reference value: 1); type: functional; details: dose 8 µg/ml, 1.5 h
[8] = system: Trichophyton mentagrophytes; assay: Fungicidal activity against Trichophyton mentagrophytes KCCM60449 at 4 times after 2 hrs by time-kill kinetics assay; type: functional, organism-based
Nakaseomyces glabratus [9] = assay: Induction of drug resistant in Candida glabrata BG2 assessed as increase in compound IC50 at 8 to 12 times MIC; type: functional, organism-based
[Candida] auris = Synergistic antifungal activity against Candida auris B8841 assessed as FICI in presence of ICZ after 48 hrs by checker board assay; type: functional, organism-based; details: Candidozyma auris
HaCaT = assay: Cytotoxicity against human HaCaT cells upto 12.5 uM incubated for 24 hrs; type: cell-based
Aspergillus fumigatus = assay: Synergistic antifungal activity against Aspergillus fumigatus AF293 assessed as FICI in presence of AmB after 48 hrs by checker board assay; type: functional, organism-based
Cytochrome P450 2D6 = Cytochrome P450 2D6 (Homo sapiens, UniProt P10635); assay: Inhibition of CYP2D6 (unknown origin) relative to control; type: ADME
Chain of Cytochrome P450 2D6 (P10635 whole entry): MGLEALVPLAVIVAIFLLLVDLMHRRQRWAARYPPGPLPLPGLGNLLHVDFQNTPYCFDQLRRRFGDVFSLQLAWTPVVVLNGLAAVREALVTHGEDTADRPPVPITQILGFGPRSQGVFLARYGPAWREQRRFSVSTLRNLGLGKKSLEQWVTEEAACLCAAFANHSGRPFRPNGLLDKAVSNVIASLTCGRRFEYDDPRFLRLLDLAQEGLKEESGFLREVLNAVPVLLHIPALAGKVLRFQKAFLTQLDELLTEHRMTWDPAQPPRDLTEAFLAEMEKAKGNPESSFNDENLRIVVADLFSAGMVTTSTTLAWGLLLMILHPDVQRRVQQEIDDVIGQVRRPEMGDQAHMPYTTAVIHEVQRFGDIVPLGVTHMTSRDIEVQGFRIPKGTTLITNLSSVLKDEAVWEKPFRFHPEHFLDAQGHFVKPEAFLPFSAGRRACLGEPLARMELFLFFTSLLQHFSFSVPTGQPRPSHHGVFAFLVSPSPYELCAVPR

Cytochrome P450 2C9 = Cytochrome P450 2C9 (Homo sapiens, UniProt P11712); assay: Inhibition of CYP2C9 (unknown origin) relative to control; type: ADME
Chain of Cytochrome P450 2C9 (P11712 whole entry): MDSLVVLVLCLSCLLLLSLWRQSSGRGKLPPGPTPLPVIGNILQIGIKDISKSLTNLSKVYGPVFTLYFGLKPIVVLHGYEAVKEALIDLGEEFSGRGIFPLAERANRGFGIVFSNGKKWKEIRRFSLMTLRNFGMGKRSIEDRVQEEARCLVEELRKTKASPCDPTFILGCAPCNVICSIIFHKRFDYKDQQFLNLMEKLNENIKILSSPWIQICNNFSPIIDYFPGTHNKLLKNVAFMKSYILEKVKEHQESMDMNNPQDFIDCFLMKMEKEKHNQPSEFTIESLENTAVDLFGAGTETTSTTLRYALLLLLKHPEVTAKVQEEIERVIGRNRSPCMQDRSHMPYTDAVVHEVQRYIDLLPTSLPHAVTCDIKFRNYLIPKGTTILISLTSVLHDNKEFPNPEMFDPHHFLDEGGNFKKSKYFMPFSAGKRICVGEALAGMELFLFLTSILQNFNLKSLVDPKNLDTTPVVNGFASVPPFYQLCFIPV

[10] = Stability in human hepatocytes assessed as parent compound remaining incubated for 60 mins; type: ADME, cell-based, Hepatocyte; details: read-out: Stability
Cryptococcus neoformans [11] = assay: Synergistic antifungal activity against Cryptococcus neoformans H99 assessed as FICI in presence of AmB after 48 hrs by checker board assay; type: functional, organism-based
CYP1A2 = target: T1, CYP1A2 (Homo sapiens, UniProt P05177); assay: Inhibition of CYP1A2 (unknown origin) relative to control; type: ADME
T1 sequence (P05177 whole entry): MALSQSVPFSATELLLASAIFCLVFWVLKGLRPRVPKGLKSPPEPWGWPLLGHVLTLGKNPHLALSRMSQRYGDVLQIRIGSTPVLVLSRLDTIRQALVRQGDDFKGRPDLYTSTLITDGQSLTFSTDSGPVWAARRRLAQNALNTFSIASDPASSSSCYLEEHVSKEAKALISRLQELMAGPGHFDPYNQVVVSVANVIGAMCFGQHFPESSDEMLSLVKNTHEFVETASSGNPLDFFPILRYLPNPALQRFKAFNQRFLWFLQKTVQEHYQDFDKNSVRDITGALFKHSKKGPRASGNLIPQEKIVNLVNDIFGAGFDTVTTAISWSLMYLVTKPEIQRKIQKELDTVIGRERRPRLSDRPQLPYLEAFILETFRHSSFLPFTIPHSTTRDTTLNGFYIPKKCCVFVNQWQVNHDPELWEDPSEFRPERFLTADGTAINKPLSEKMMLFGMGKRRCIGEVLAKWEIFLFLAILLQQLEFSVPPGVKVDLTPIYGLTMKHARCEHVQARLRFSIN

[12] = Cmax in Sprague-Dawley rat at 2 mg/kg, iv; type: ADME, organism-based; set-up: route intravenous, dose 2 mg/kg; details: in vivo
Nakaseomyces glabratus [13] = assay: Synergistic antifungal activity against Candida glabrata BG2 assessed as FICI in presence of ICZ after 48 hrs by checker board assay; type: functional, organism-based
[14] = Effective permeability by PAMPA method; type: ADME; details: read-out: Peff
[15] = system: Trichophyton mentagrophytes; assay: Fungicidal activity against Trichophyton mentagrophytes KCCM60449 at 4 ug/ml by time-kill kinetics assay; type: functional, organism-based; details: dose 4.0 µg/ml
Candida albicans = assay: Antifungal activity against Candida albicans ATCC SC5314 assessed as reduction in fungal growth incubated for 48 hrs by CLSI based broth microdilution method; type: functional
[16] = Effect on cell wall integrity in Cryptococcus neoformans H99 assessed as increase in HXL1 activation ratio at 8 ug/ml after 2 hrs by immunoblot analysis (reference value: 1); type: functional; details: dose 8 µg/ml
[17] = Cmax in dog at 10 mg/kg, po; type: ADME, organism-based, Canis lupus familiaris; set-up: route oral, dose 10 mg/kg; details: in vivo
[18] = Stability in mouse liver microsomes assessed as parent compound remaining after 30 mins; type: ADME, Microsome; details: liver microsomes, read-out: Stability
Cryptococcus neoformans [19] = assay: Effect on cell wall integrity in Cryptococcus neoformans XW252 cotransfected with mCherry-Nop1-Gfp mutant assessed as increase in nuclear translocation of Crz1 at 8 ug/ml after 90 mins by fluorescence microscopic analysis; type: functional; details: dose 8.0 µg/ml
Cryptococcus neoformans [20] = assay: Fungicidal activity against Cryptococcus neoformans H99 at 2 times of MIC after 12 hrs by time-kill kinetics assay; type: functional, organism-based
[21] = Stability in rat hepatocytes assessed as parent compound remaining incubated for 60 mins; type: ADME, cell-based, Hepatocyte; details: read-out: Stability
[22] = AUC(0 to t) in Sprague-Dawley rat at 2 mg/kg, iv; type: ADME, organism-based; set-up: dose 2 mg/kg; details: in vivo
Cytochrome P450 3A4 = Cytochrome P450 3A4 (Homo sapiens, UniProt P08684); assay: Inhibition of CYP3A4 (unknown origin) relative to control; type: ADME
Chain of Cytochrome P450 3A4 (P08684 whole entry): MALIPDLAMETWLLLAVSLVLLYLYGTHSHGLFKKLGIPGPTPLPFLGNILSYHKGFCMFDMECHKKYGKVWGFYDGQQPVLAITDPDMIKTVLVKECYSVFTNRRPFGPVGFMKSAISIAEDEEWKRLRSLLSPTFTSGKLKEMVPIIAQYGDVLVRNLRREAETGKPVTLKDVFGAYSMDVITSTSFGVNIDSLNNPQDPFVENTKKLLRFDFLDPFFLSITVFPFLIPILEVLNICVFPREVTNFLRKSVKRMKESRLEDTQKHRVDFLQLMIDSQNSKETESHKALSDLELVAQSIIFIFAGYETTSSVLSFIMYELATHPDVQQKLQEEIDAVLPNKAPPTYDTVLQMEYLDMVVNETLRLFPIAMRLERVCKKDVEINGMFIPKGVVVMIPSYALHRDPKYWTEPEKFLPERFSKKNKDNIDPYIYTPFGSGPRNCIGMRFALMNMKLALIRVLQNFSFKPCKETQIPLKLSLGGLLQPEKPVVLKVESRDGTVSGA

Cryptococcus neoformans [23] = assay: Fungicidal activity against Cryptococcus neoformans H99 at 8 times of MIC after 2 hrs by time-kill kinetics assay; type: functional, organism-based
Cytochrome P450 2C19 = Cytochrome P450 2C19 (Homo sapiens, UniProt P33261); assay: Inhibition of CYP2C19 (unknown origin) relative to control; type: ADME
Chain of Cytochrome P450 2C19 (P33261 whole entry): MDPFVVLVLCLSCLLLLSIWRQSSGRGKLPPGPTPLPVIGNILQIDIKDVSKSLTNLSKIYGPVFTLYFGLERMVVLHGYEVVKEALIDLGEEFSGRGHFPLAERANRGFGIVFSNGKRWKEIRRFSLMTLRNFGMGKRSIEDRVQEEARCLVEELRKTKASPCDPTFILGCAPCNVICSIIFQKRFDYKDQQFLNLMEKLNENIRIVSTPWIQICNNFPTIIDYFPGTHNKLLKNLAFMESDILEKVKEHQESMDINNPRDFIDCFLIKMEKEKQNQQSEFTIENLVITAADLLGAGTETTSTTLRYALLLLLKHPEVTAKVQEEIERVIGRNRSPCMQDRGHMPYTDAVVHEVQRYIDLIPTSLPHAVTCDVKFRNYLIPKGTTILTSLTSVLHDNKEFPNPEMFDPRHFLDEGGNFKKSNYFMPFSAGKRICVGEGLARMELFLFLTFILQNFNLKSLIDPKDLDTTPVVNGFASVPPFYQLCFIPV

[24] = Toxicity in Sprague-Dawley rat assessed as body weight gain at 500 to 1000 mg/kg, po measured after 3 days; type: organism-based; details: in vivo, 72 h, dose 500-1000 mg/kg, time 3 day

For `CCCC(N)C(=O)NCCc1ccc(-c2ccc(Cl)c(Cl)c2)cc1.Cl` (racemic), the Activity (Cryptococcus neoformans [1]) was “Active”, the Activity (Nakaseomyces glabratus [2]) was “Active” and the AUC(0-t) [3] was 527 ng·h/mL. The Activity (Cryptococcus neoformans [4]) was “Active”, the Activity (Nakaseomyces glabratus [5]) was “Active” and the Cmax [6] was 1080 ng/mL. For the same molecule, the Ratio [7] was 3.32, the Activity [8] was “Active” and the Activity (Nakaseomyces glabratus [9]) was “inactive”. For the same molecule, the Activity ([Candida] auris) was “inactive”, the Activity (HaCaT) was “Non-Toxic” and the Activity (Aspergillus fumigatus) was “Active”. For the same molecule, the “inhibition (INH)” value (Cytochrome P450 2D6) was 88.7%, the “inhibition (INH)” value (Cytochrome P450 2C9) was 77.3% and the remaining at 1 h [10] was 79.1%. The Activity (Cryptococcus neoformans [11]) was “Active”, the inhibition at 10 µM (CYP1A2) was 81.1% and the Cmax [12] was 190 ng/mL. The Activity (Nakaseomyces glabratus [13]) was “inactive”, the Papp [14] was 58.9 ×10⁻⁶ cm/s and the Activity [15] was “Active”. For the same molecule, the MIC (Candida albicans) was 2 µg/mL, the Ratio [16] was 1.57 and the Cmax [17] was 4390 ng/mL. The remaining at 0.5 h [18] was 78.2%, the Activity (Cryptococcus neoformans [19]) was “Active” and the Activity (Cryptococcus neoformans [20]) was “Active”. The remaining at 1 h [21] was 36.2%, the AUC(0-t) [22] was 265 ng·h/mL and the “inhibition (INH)” value (Cytochrome P450 3A4) was 43.7%. The Activity (Cryptococcus neoformans [23]) was “Active”, the “inhibition (INH)” value (Cytochrome P450 2C19) was 86% and the Activity [24] was “Non-Toxic”.
